“And” between values parts separate entries of the source, which are not always exact repeats. Identical values can stand only once. Like-named read-outs stand apart in the source and are kept apart here.
Columns and labels:
[1] = Chirality analysis: conversion of L-alanosine to D-alanosine (chiral HPLC); format: physicochemical
Protocol: The following HPLC procedure was used to separate the L- and D-enantiomers of alanosine. The HPLC system (Agilent 1100) employed a 4.6 mm×150 mm column (Phenomenex) containing 5 μm particles (Chirex 3126, (D)-penicillamine) as the stationary phase. The system was equipped with both UV and polarimeter detectors. The UV detector was set to 254 nm to monitor products being eluted from the column, while the polarimeter detector was set to 670 nm. The eluent was 2 mM CuSO4/MeOH 70-30. The flow rate was 1.7 mL/min. at a pressure of 200 bar. For each run, a 100 μL sample containing 0.5 mg/mL in 2 mM CuSO4 was injected onto the column. […] To reverse the elution order, (L)-penicillamine could be used.

[2] = format: physicochemical; details: for Amount degraded/day (%) / Predicted purity after 2 years: Arrhenius analysis
Protocol: An Arrhenius analysis was performed to predict the loss of potency and increase in degradation products over time for commonly used storage temperatures for many drugs. […] Sets of the different solutions were then placed at 40° C., 50° C., or 60° C., and samples were taken every ten days over a 60 day period. […] Specifically, these plots show a distinct difference in purity as a function of pH and temperature. […] In the pH 7.5 formulation, there was more of each of these four impurities as compared to the pH 8.5 formulation. The impurity at RRT 0.32 formed readily as a function of temperature and pH. The impurities at RRTs 0.43 and 0.46 also formed as a function of temperature and pH, but not as readily.
Indeed, the purity of the samples is similar at pH 8.5 and 9.0. […] The trends in the data shown in FIG. 5 allow an Arrhenius analysis to be performed to predict changes in purity over time at various temperatures, particularly 5° C. and 25° C. Linear regression was used to determine the positions of the lines shown in FIG. 5, which then allowed the slope of the lines (i.e., the reaction rates, per day) to be determined for each pH and a given temperature. Arrhenius plots were the generated for each of pHs 7.5, 8.5 and 9.0 from the reaction rate versus the inverse temperatures. These plots are shown in FIG. 7, which allow the equation of the lines for each of three liquid formulations to be calculated. From these equations, the purity of any given temperature for a particular formulation at a given time can be predicted.
The HPLC system (Waters Corp., model 2690 Gradient HLPC System) employed a 4.6 mm×250 mm column (MetaChem Inc.) containing 5 μm particles (Inertsil ODS-3) as the stationary phase. The system was equipped with a UV/VIS detector (Waters Corp., model 996) set to 226 nm to monitor products being eluted from the column. Data generated from the column was managed on a personal computer running Empower Software (Waters Corp.). After preparation, the column was washed with at least 100 mL of water/acetonitrile (90:10, v/v), and stored at ambient temperature in the same solution.
In each HPLC run, the mobile phase, flowing at 1.0 mL/min., comprised 7.0 g of anhydrous monobasic potassium phosphate (KH2PO4; JT Baker) dissolved in 1000 mL H2O (at least HPLC grade). The pH of the solution was adjusted to 2.5 using phosphoric acid (85%, Fisher Scientific). 2.4 g of 1-decane sulfonic acid, sodium salt (Avocado Research Chemicals) was then mixed into the solution. 50 mL of acetonitrile (HPLC Grade, Burdick & Jackson) was then mixed with 950 mL of this solution. This mixture was then degassed by filtering through Durapore membrane filters, 0.45 μm, Type HVLP, under vacuum. The column flow rate was set at 1.0 mL/min.
Diluent was prepared by dissolving 3.5 g KH2PO4 and 3.5 g (Na2HPO4, Mallincrodt) in 1000 mL of HPLC grade H2O. […] Once prepared, an alanosine standard solution was stored at ambient temperature and retained for no more than seven days.
In addition to an alanosine standard solution, a sensitivity standard was also prepared by diluting 1 mL of the alanosine standard solution 1:100 using diluent.
HPLC runs were performed after the column had equilibrated for at least three hours in the mobile phase at room temperature. Column suitability was assessed at the beginning and end of each series of experiment as follows. Initially, two 10 μL aliquots of diluent were injected onto the column in duplicate, and the chromatographs recorded and examined.

BxPC3 = experiment: Cell viability MTT assay (Example 3); format: cell-based; details: Homo sapiens, BXPC-3, 72 h; BxPC3, Pancreatic, MTAP Negative; 3 days
HS-766T = experiment: Cell viability MTT assay (Example 3); format: cell-based; details: Hs766T, 72 h, Pancreatic, MTAP Positive, 3 days
A549 = experiment: Docetaxel, 5-FU, SDX-102 alone or combined, MTT/MTS cytotoxicity (Example 4); format: cell-based; details: Homo sapiens; A549, NSCLC, single agent, MTT 72 hours
NCI-H292 = experiment: as above; format: cell-based; details: Homo sapiens; NCI-H292, NSCLC, single agent, MTT 72 hours
PANC-1 = experiment: as above; format: cell-based; details: Homo sapiens; PANC-1, Pancreatic, single agent, MTT 72 hours
BX-PC3 = experiment: as above; format: cell-based; details: Homo sapiens, BXPC-3; BX-PC3, Pancreatic, single agent, MTT 72 hours
H-Meso-1 = experiment: Mesothelioma xenograft model (H-Meso-1) in SCID mice; format: in vivo; details: thirty-one days following treatment; docetaxel 10 mg/kg intraperitoneally daily Mon-Fri, SDX-102 50 mg/kg osmotic pump; start 100 mm^3; control 1272
[3] = 6 months, 20 mg/mL, pH 8.5
Protocol: Each solution was divided into 5 mL aliquots and placed in 6 mL vials sealed with Teflon-faced screw caps (VWR Scientific, catalogue No. 66011-880). Vials of each solution were placed at five different temperatures, −20° C., 5° C., 25° C., 40° C., and 60° C., and aliquots were analyzed at various time points to determine stability.

[4] = cited from earlier work
[5] = t1 yr., pH 7.5, 25° C., listed as L
[6] = t1 yr., pH 8.5, 25° C., listed as L
[7] = t6 mo., pH 8.5, 25° C., listed as L

NC(CN(O)N=O)C(=O)O [L-alanosine, L(−)-2-amino-3-nitrosohydroxylaminopropionic acid]
conversion to D-alanosine ([1]; after one year at 5° C., pH 7.5 or 8.5): no conversion to D-alanosine
conversion to D-alanosine at pH 8.5 compared to pH 7.5 ([1]; storage at 25° C.): 5-10 times
% Total Peak Area L ([1]; t0): 100%
% Total Peak Area L ([1]; t1 yr., pH 7.5, 5° C.): 100%
% Total Peak Area D [1, 5]: 0.99% and 0.78%
% Total Peak Area L [1, 5]: 99.01% and 99.22%
% Total Peak Area L ([1]; t1 yr., pH 8.5, 5° C.): 100%
% Total Peak Area D [1, 6]: 4.45% and 4.56%
% Total Peak Area L [1, 6]: 95.55% and 95.44%
% Total Peak Area L ([1]; t6 mo., pH 8.5, 5° C.): 100%
% Total Peak Area D [1, 7]: 2.03% and 2.04%
% Total Peak Area L [1, 7]: 97.97% and 97.96%
Amount degraded/day (%) ([2]; 20 mg/mL, pH 7.5, 5° C.): 0.000374%
Predicted purity after 2 years ([2]; 20 mg/mL, pH 7.5, 5° C.): 99.727%
Amount degraded/day (%) ([2]; 20 mg/mL, pH 7.5, 25° C.): 0.000601%
Predicted purity after 2 years ([2]; 20 mg/mL, pH 7.5, 25° C.): 99.561%
Predicted purity after 2 years ([2]; 20 mg/mL, pH 8.5, 5° C.): 99.985%
Predicted purity after 2 years ([2]; 20 mg/mL, pH 8.5, 25° C.): 99.930%
calculated purity ([2]; 20 mg/mL, pH 8.5-9.0, stored at 25° C., at least two years): more than 99.9%
Predicted purity after 2 years ([2]; 20 mg/mL, pH 9.0, 5° C.): 100.00%
Predicted purity after 2 years ([2]; 20 mg/mL, pH 9.0, 25° C.): 100.00%
trend in purity over 60 days ([2]; solutions pH 7.5, 8.5, 9.0 stored at 40° C.): no trend in decreased purity
IC50 (BxPC3): 6000 nM
IC50 (HS-766T): > 20000 nM
IC50 (A549): 300 ± 100 nM
IC50 (NCI-H292): 200 ± 60 nM
IC50 (PANC-1): 10000 ± 5000 nM
IC50 (BX-PC3): 3000 ± 1000 nM
mean tumor volume (H-Meso-1): 1035 mm^3
stability versus freshly reconstituted lyophilizate (HPLC) [3]: as stable after storage at 5 °C for six months as a composition prepared by freshly reconstituting lyophilized L-alanosine
single bolus dose at which renal toxicity reported ([4]; human, in vivo): above 4 g/m^2 body weight
dose-limiting toxicity ([4]; phase II, adults with acute non-lymphoblastic leukemia, continuous infusion about 125 mg/m^2 for 5 days): mucositis
